Here are results for 1 compound from BindingDB's records for doi:10.1021/jm8003625 (Abbott Laboratories, 2008).

Structures are written as SMILES.

Broadly, the Ki is the equilibrium dissociation constant of an inhibitor or competing ligand from its target. Read a high Ki as lower affinity.

Assay [1] has as its target Histamine H3 receptor (Homo sapiens, UniProt Q9Y5N1). As to the kind of experiment: Radioligand Binding Assay. The following applies: pH 7.4; 25 °C. As for the experimental part: (§1) Competition radioligand binding assays were performed with increasing concentrations of test compound in the presence of [3H]ligand. All binding reactions were terminated by filtration. Bound radiolabel was determined by liquid scintillation counting. For all of the radioligand competition binding assays, IC50 values and Hill slopes were determined by Hill transformation of the data and Ki values were determined by the Cheng-Prusoff equation.

Assay [2] has as its target Histamine H3 receptor (Rattus norvegicus, UniProt Q9QYN8). As to the kind of experiment: Radioligand Binding Assay. As for the experimental part:
as §1

Histamine H3 receptor (Rattus norvegicus, UniProt Q9QYN8), sequence (Q9QYN8 whole entry): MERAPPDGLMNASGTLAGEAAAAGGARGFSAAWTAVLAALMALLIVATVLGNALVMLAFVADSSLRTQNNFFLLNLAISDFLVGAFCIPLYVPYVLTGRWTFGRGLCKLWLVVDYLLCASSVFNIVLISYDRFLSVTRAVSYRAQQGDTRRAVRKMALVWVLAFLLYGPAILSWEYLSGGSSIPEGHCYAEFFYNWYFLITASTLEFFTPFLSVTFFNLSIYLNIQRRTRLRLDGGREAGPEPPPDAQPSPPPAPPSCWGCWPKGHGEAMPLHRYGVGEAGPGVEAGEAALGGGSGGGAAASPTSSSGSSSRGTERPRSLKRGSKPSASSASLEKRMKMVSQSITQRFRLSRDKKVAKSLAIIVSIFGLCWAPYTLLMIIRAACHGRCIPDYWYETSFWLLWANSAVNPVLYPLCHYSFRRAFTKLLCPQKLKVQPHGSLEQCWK
Histamine H3 receptor (Homo sapiens, UniProt Q9Y5N1), sequence (Q9Y5N1 whole entry): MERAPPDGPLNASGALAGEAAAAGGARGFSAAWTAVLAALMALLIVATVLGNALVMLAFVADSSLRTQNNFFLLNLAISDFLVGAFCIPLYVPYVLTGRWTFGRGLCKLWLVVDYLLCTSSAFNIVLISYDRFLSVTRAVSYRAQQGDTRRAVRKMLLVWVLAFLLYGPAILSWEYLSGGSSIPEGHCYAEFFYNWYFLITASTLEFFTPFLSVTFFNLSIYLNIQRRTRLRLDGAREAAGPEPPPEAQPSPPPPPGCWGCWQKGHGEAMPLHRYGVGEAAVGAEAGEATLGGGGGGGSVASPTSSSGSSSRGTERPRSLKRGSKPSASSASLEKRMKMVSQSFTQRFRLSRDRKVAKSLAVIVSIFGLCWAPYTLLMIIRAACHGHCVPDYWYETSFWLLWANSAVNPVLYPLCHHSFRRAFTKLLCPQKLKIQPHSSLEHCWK

For the compound `CN[C@H]1CC[C@@]2(C)C(=CC[C@H]3[C@@H]4CC[C@@H]5[C@H](C)N(C)C[C@@]54CC[C@@H]32)C1` [(1R,2S,5S,6S,9R,12S,13R,16S)-N,6,7,13-tetramethyl-7-azapentacyclo[10.8.0.0^{2,9}.0^{5,9}.0^{13,18}]icos-18-en-16-amine], the Ki on Histamine H3 receptor [1] was 38 nM; on Histamine H3 receptor [2] it was 302 nM.
